Among the data in patent publication US7199128B2, “8-N-substituted-2H-isothiazolo[5,4-b]quinolizine-3,4-diones and related compounds as antiinfective agents” (Achillion Pharmaceuticals, Inc., priority 2005, dated 2007) are IC50, CC50 and MIC values, retold here.

≈ marks a conversion by molar mass, not a printed value. Like-named read-outs stand apart in the source and are kept apart here.

One series has as its target S. aureus DNA gyrase (Staphylococcus aureus, UniProt P0A0K8+P20831). Put plainly: DNA gyrase supercoiling assay. Format: biochemical.
Series [1] is described as follows: Cell viability staining with Alamar Blue (cytotoxicity). The class given is cell-based. The settings on record: Chinese hamster, CHO (Chinese hamster ovary) cells, positive control. For orientation: Alamar Blue is a resazurin reagent that responds to reducing activity.
Procedure: (§2) Optimal cell density is first determined by plating cells in a 96-well plate standard sterile tissue culture plates in 100 μl media, 10%FBS at six cell densities from 500 cells/well to 15,000 cells/well. A cell free well containing only media is used as a control. Cells are incubated at 37° C. in a 5% CO2 incubator for 24 hours. 10% culture volume (10 microliters) of Alamar Blue (Biosource, DAL1100, 100 ml) is then added. Cells are incubated at 37° C. in a 5% CO2 incubator and read in a Victor V plate reader, 544 nm excitation, 590 nm emission, at 3, 4, and 24 hours after the addition of Alamar Blue. The cell number vs. change in fluorescence is plotted to determine linearity of signal vs. cell number. The optimal density varies between 500–15,000 cells/well depending on the specific cell type. The optimal density is selected based on the highest number of cells that is still in the linear response range. Determination of Compound Cytotoxicity Cells are plated at optimal cell density in a standard sterile tissue culture 96 well plate, and incubated at 37° C. O/N in a 5% CO2 incubator. 12 to 48 hours post-plating media is removed. […] Plates are incubated 4 hours at 37° C. in a 5% CO2 incubator and read in a Victor V plate reader, 544 nm excitation, 590 nm emission. […] The change in fluorescence vs. concentration of test compound is plotted to determine the cytotoxicity of the compound.
Experiment in series [2]: as above
Procedure: as §2
The class given is cell-based. The settings on record: human, HEP 2 (laryngeal carcinoma) cells; HEP 2 cells, positive control.

Another series concerns the target T1, E. coli DNA gyrase (Escherichia coli, UniProt P0AES4+P0AES6).
T1 construct: made in house; host or cells: E. coli
The experiment in a line: DNA gyrase supercoiling assay. Format: biochemical. The settings on record: read-out: inhibition of E. coli DNA gyrase supercoiling IC50. On the procedure:
Enzyme activity is measured by a supercoiling assay that monitors the ATP-dependent conversion of relaxed pBR322 DNA to the supercoiled form. Analysis is done by gel electrophoresis through 1% agarose/TBE gel. DNA is visualized with an Alpha Imager 2200 Analysis System and the IC50 determined by nonlinear regression analysis with Graphpad Prism software. E. coli DNA gyrase enzyme subunits, gyrA and gyrB, are purified to homogeneity from over-expression constructs in E. coli.

For the next series, the system named is S. aureus ATCC 29213. Put plainly: Minimum inhibitory concentration (MIC) assay, broth microdilution. Format: cell-based. The settings on record: Staphylococcus aureus, ATCC29213; against S. aureus; visible growth after 18–24 h at 37° C. On the procedure:
(§1) The antimicrobial activity of the compounds of the invention may be evaluated by a number of methods, including the following visual minimum inhibitory concentration (MIC) assay. This assay determines the minimum concentration of compound required to inhibit growth of a bacterial strain. Minimum Inhibitory Concentration (MIC) Assay Whole-cell antibacterial activity is determined by broth microdilution using conditions recommended by the National Committee for Clinical Laboratory Standards (NCCLS). […] Test compounds are dissolved in DMSO and diluted 1:50 in Mueller-Hinton II broth (Becton-Dickinson) to produce a 256 μg/ml stock solution. In a 96-well microtiter plate, the compound solution is serially two-fold diluted in Mueller-Hinton II broth. After the compounds are diluted, a 50 μl aliquot of the test organism (˜1×10^6 cfu/mL) is added to each well of the microtiter plate. The final test concentrations range from 0.125–128 μg/mL. Inoculated plates are incubated in ambient air at 37° C. for 18 to 24 hours. The organisms selected for testing included laboratory strains S. aureus ATCC 29213 and E. coli ATCC 25922 (strains purchased from American Type Culture Collection, Manassas, Va.). The minimum inhibitory concentration (MIC) was determined as the lowest concentration of compound that inhibited visible growth of the test organism.
(In broth dilution the organism is exposed to a series of concentrations in liquid medium.)

A further series concerns E. coli ATCC 25922. The description is as above. The class given is cell-based. Conditions: Escherichia coli, ATCC25922; against E. coli; visible growth after 18–24 h at 37° C. The protocol:
as §1

Series [3] has as its target T2, S. aureus topoisomerase IV (Staphylococcus aureus, UniProt P0C1S7+P0C1U9).
T2 construct: made in house; host or cells: E. coli
The experiment in a line: Topoisomerase IV decatenation assay. Format: biochemical. On the procedure: Topoisomerase IV Activity
Enzyme activity is measured by a decatenation assay that monitors the ATP-dependent unlinking of DNA minicircles from kinetoplast DNA. Analysis is done by gel electrophoresis through 1% agarose/TBE gel. DNA is visualized with an Alpha Imager 2200 Analysis System and the IC50 determined by nonlinear regression analysis with Graphpad Prism software. S. aureus topoismerase IV enzyme subunits, grlA and grlB, are purified to homogeneity from over-expression plasmids in E. coli.

A word on the IC50: it is the concentration at which inhibition is half-maximal. What is called CC50 is the concentration giving 50% cytotoxicity. A lower CC50 goes with greater toxicity to the cells. One may read the MIC as the lowest concentration that inhibits growth of the organism.

Chain of S. aureus DNA gyrase (P20831 whole entry): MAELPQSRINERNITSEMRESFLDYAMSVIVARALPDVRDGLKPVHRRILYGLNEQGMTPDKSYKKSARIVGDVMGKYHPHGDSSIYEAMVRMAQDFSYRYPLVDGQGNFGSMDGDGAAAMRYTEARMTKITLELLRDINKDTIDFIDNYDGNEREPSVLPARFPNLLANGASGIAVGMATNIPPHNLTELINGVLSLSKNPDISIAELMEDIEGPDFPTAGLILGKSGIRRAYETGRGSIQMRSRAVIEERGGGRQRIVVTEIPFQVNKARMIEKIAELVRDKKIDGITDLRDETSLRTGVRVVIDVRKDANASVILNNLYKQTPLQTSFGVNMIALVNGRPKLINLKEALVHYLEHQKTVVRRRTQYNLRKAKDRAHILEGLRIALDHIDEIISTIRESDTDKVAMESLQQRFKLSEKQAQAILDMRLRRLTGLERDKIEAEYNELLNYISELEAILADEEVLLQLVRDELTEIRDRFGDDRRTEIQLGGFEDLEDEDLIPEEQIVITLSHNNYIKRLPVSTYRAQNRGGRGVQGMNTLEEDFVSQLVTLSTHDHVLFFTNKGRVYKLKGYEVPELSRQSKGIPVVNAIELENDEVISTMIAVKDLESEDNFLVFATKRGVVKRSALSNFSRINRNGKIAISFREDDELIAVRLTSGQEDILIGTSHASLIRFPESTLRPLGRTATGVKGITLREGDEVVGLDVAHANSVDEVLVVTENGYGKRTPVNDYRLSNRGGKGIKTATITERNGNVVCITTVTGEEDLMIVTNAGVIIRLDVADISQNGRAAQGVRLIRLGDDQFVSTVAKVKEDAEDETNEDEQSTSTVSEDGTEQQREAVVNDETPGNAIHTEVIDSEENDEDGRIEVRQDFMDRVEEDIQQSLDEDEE
Chain of S. aureus DNA gyrase (P0A0K8 whole entry): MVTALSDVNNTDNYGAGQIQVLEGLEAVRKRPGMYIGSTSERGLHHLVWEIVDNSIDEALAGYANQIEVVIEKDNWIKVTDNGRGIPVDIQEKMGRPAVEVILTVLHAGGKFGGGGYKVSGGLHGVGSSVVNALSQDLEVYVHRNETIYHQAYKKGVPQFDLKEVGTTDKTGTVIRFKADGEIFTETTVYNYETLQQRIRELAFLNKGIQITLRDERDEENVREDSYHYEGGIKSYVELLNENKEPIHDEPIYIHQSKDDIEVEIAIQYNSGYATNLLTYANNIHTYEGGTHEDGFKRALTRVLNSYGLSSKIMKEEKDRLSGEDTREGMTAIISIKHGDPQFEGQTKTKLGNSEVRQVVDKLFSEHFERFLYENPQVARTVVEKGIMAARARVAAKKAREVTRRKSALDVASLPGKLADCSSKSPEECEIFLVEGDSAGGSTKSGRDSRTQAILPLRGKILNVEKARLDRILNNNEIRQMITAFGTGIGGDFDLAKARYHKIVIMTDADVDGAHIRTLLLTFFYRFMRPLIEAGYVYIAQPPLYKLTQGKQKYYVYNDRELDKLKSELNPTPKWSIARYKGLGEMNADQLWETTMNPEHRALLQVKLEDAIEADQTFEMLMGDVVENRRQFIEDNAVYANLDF
T2 sequence (P0C1U9 whole entry): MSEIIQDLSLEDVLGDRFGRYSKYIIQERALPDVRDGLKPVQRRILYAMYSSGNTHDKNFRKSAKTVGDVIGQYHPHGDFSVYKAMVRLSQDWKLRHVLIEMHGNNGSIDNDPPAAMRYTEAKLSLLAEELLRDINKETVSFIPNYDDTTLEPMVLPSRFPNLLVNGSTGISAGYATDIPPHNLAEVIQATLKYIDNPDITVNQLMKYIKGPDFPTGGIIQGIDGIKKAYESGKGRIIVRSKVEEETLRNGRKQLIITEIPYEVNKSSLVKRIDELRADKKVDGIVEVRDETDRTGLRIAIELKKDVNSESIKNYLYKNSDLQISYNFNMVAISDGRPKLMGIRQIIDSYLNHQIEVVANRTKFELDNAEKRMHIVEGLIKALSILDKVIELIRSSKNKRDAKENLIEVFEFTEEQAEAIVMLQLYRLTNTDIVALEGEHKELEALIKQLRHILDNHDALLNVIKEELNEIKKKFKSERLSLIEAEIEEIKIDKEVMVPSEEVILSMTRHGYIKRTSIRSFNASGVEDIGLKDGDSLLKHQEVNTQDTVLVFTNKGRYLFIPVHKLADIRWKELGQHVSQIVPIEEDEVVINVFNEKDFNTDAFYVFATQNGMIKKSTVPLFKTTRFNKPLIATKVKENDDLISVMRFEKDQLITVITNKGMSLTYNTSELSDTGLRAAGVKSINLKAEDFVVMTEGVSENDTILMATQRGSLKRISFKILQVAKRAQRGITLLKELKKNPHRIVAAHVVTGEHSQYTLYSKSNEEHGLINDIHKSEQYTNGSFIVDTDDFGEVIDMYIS
T2 sequence (P0C1S7 whole entry): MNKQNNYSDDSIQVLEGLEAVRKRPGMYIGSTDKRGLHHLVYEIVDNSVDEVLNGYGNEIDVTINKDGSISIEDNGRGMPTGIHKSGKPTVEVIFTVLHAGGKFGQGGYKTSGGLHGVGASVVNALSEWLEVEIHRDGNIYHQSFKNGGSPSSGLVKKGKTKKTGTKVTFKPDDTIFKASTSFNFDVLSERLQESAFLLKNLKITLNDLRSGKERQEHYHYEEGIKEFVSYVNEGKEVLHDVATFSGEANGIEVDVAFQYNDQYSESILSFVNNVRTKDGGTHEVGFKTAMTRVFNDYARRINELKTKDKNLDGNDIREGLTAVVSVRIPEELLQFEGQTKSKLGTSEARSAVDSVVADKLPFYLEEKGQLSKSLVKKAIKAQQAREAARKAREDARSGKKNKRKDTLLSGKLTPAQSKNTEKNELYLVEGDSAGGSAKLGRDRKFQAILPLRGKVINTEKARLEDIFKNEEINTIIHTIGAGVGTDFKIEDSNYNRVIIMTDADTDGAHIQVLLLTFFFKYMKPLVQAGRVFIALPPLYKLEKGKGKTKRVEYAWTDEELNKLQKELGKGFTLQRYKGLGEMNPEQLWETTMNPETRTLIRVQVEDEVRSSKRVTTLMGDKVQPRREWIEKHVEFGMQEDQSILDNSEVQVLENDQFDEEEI
T1 sequence (P0AES4 whole entry, one chain of several): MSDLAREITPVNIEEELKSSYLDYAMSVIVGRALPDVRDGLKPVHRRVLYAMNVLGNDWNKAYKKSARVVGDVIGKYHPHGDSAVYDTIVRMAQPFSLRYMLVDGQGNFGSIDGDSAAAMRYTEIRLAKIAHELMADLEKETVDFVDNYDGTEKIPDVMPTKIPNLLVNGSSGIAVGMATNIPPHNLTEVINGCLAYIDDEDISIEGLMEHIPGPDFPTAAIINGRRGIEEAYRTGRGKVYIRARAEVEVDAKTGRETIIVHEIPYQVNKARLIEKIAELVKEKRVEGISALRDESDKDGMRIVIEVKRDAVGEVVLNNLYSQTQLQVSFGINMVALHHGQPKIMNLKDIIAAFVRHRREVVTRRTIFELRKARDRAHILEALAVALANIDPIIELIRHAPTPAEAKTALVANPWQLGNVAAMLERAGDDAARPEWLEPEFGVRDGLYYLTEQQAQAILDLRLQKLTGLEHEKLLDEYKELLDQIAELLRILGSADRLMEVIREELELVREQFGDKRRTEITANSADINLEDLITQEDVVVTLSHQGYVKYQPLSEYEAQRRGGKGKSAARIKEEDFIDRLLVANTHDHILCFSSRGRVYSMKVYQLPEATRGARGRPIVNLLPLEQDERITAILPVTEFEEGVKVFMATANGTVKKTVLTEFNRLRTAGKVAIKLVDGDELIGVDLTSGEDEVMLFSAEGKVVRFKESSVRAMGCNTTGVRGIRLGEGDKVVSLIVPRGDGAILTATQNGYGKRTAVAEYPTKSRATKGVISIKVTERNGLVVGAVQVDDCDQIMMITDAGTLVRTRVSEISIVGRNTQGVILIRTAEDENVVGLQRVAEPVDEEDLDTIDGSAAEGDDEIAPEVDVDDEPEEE

As for `O=c1[nH]sc2c(C3CC3)c3cc(N4CC(O)C4)c(F)cn3c(=O)c12` [Compound 9, 10-cyclopropyl-7-fluoro-8-(3-hydroxyazetidin-1-yl)-2H-isothiazolo[5,4-b]quinolizine-3,4-dione], on S. aureus DNA gyrase, the concentration for half-maximal inhibition (IC50) was greater than 200 µM.
For the compound `CC(C)(C)c1ccc(C(O)CCCN2CCC(C(O)(c3ccccc3)c3ccccc3)CC2)cc1` (stereo not drawn) [Terfenadine], the results for the CC50 in series [1] and in series [2] were 4.3 to 6.5 µM and 3 to 5 µM, respectively.
Consider `CCc1c2s[nH]c(=O)c2c(=O)n2ccc(N3CCNCC3)cc12` [Compound 8, 10-ethyl-8-(piperazin-1-yl)-2H-isothiazolo[5,4-b]quinolizine-3,4-dione], for which the IC50 at E. coli DNA gyrase is less than 1 µM; at S. aureus DNA gyrase it was greater than 200 µM; in series [3] (read-out: inhibition of S. aureus topoisomerase IV activity IC50), less than 10 µM. Also, the MIC with S. aureus ATCC 29213 and with E. coli ATCC 25922 was 10 µg/mL (≈ 30.3 µM) each time.
In the case of `CCc1c2s[nH]c(=O)c2c(=O)n2ccc(N3CCC(N(C)C)C3)cc12` (racemic) [Compound 7, 8-(3-(dimethylamino)pyrrolidin-1-yl)-10-ethyl-2H-isothiazolo[5,4-b]quinolizine-3,4-dione], the IC50 at E. coli DNA gyrase is less than 1 µM; in series [3], less than 10 µM. The MIC in the series with S. aureus ATCC 29213 and against E. coli ATCC 25922 was 10 µg/mL (≈ 27.9 µM) throughout.
